Here are results for 1 compound from patent publication US7943175B2, “Calixarene based dispersible colloidal systems in the form of nanoparticles” (Nanoport S.A., priority 2001, dated 2011).

Structures are written as SMILES.

This data set relates to embryo insect cells (trichiopusia ni). Nature of the data set: Toxicity test on embryo insect cells. The format is cell-based. From the text: Second, p-dodecanoyl-calix[4]arene has been tested on embryo insect cells (trichiopusia ni). Viability values of more than 80% have been found.

On to `CCCCCCCCCCCC(=O)c1cc2c(O)c(c1)Cc1cc(C(=O)CCCCCCCCCCC)cc(c1O)Cc1cc(C(=O)CCCCCCCCCCC)cc(c1O)Cc1cc(C(=O)CCCCCCCCCCC)cc(c1O)C2` [p-dodecanoyl-calix[4]arene], for which the Viability result was “more than 80%”.
